In this assay the target is human orexin 2 receptor (Homo sapiens (Human), UniProt O43614). The assay can be described thus: Human orexin 2 receptor radioligand binding ([3H]-EMPA competition). The conditions noted are these: HEK293 stably expressing human orexin 2 receptor; 2 nM [3H]-EMPA; averages of 2-20 runs; read-out: hOX2 Ki. Here is the method: The in vitro affinity of the compounds of the invention for the rat/human orexin 1 and human orexin 2 receptors was determined by competitive radioligand binding using [^3H](1-(5-(2-fluoro-phenyl)-2-methyl-thiazol-4-yl)-1-((S)-2-(5-phenyl-(1,3,4)oxadiazol-2-ylmethyl)-pyrrolidin-1-yl)-methanone) (Langmead et al., 2004) and [^3H]EMPA (n-ethyl-2[96-methoxy-pyridin-3-yl)-(toluene-2-sulfonyl)-amino]-N-pyridin-3-ylmethyl acetamide), respectively (Langmead et al., 2004, British Journal of Pharmacology 141:340-346; Malherbe et al., 2004, British Journal of Pharmacology 156:1326-41).
human orexin 2 receptor, sequence (O43614 whole entry): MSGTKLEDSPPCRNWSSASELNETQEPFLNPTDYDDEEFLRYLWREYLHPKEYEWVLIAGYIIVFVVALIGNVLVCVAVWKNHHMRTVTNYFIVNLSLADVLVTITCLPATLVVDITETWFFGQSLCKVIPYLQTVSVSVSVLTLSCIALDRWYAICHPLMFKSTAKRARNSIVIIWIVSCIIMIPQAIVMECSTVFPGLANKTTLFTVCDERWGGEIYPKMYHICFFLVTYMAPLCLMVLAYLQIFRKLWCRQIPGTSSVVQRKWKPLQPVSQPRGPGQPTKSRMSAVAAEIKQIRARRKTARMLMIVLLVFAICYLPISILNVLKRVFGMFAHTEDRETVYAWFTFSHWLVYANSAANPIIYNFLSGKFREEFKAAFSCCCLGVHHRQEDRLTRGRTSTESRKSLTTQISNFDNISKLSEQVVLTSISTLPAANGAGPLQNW
Data are analyzed using pc-Sandy macro and graphed on Graphpad Prism 5. For analysis, each concentration point is averaged from triplicate values and the averaged values are plotted on Graphpad Prism. The IC50 was determined by applying the following equation (GraphPad Prism 5.0, San Diego) for one site competition where X=log (concentration) and Y=specific binding. Top denotes the total [^3H]— (1-(5-(2-fluoro-phenyl)-2-methyl-thiazol-4-yl)-1-((S)-2-(5-phenyl-(1,3,4)oxadiazol-2-ylmethyl)-pyrrolidin-1-yl)-methanone) binding, bottom denotes the nonspecific [^3H]— (1-(5-(2-fluoro-phenyl)-2-methyl-thiazol-4-yl)-1-((S)-2-(5-phenyl-(1,3,4)oxadiazol-2-ylmethyl)-pyrrolidin-1-yl)-methanone) binding. Graphpad Prism calculates Ki value from IC50 and the pre-determined Kd values for [^3H]— (1-(5-(2-fluoro-phenyl)-2-methyl-thiazol-4-yl)-1-((S)-2-(5-phenyl-(1,3,4)oxadiazol-2-ylmethyl)-pyrrolidin-1-yl)-methanone) and [^3H]-EMPA. The Ki for each compound is then uploaded into 3DX. Each run comprises individual compounds in triplicate. The data in Table 1 and Table 2 represent averages from between 2-20 runs
Human Orexin 2 Receptor Radioligand Binding Studies
HEK293 stably expressing human orexin 2 receptor (Genebank accession number NM_001526) were grown to confluency in DMEM (Hyclone, cat # SH30022), 10% FBS, 1× Pen/Strep, 1× NaPyruvate, 10 mM HEPES, 600 μg/ml G418 media on 150 cm^2 tissue culture plates, washed with 5 mM EDTA in PBS (HyClone Dulbecco's Phosphate Buffered Saline 1× with Calcium and Magnesium, Cat # SH30264.01, hereafter referred to simply as PBS) and scraped into 50 ml tubes. After centrifugation (2K×G, 5 min at 4° C.), the supernatant was aspirated and the pellets frozen and stored at −80° C. Cells were resuspended in PBS in the presence of 1 tablet of protease inhibitor cocktail (Roche, Cat. #11836145001) per 50 mL. […] Compounds were solubilized in 100% DMSO (Acros Organics, Cat. #61042-1000) and tested over a range of 7 concentration (from 0.1 nM to 10 μM). The final concentration of DMSO in the reactions is equal to or less than 0.1%. Total and nonspecific binding was determined in the absence and presence of 10 μM almorexant. The total volume of each reaction is 200 μL (20 μL of diluted compounds, 80 μL of [^3H]-EMPA diluted in PBS and 100 μL of the cell suspension). Reactions were run for 60 min at room temperature and terminated by filtration through GF/C filter plates (PerkinElmer, Cat. #6005174) presoaked in 0.3% polyethylenimine using the cell harvester (PerkinElmer Filtermate). The plates were washed 3 times by aspirating 30 ml PBS through the plates. Plates were dried in 55° C. oven for 60 min, scintillation fluid was added, and the radioactivity was counted on a Topcount (Packard).

We go through twelve compounds from patent US9611262B2, “Substituted 2-azabicycles and their use as orexin receptor modulators” (JANSSEN PHARMACEUTICA NV, priority 2014, dated 2017).

pKi: −log10 of the molar value.

Turning to `CC1C2CC(Nc3cnc(C(F)(F)F)cn3)C(C2)N1C(=O)c1ccccc1-n1nccn1` (racemic) [Example 5, (R/S)-(2-(2H-1,2,3-triazol-2-yl)phenyl)(3-methyl-6-((5-(trifluoromethyl)pyrazin-2-yl)amino)-2-azabicyclo[2.2.1]heptan-2-yl)methanone], the pKi (in general, the Ki on a negative log10 scale, so that one unit is a factor of ten) is 6.56.

Regarding `CC1C2CC(Oc3ccc(C(F)(F)F)cn3)C(C2)N1C(=O)c1ncccc1-n1nccn1` (racemic) [Example 9, (R/S)-(3-(2H-1,2,3-triazol-2-yl)pyridin-2-yl)(3-methyl-6-((5-(trifluoromethyl)pyridin-2-yl)oxy)-2-azabicyclo[2.2.1]heptan-2-yl)methanone], the pKi was 5.43.

As to `Cc1cnc(C(=O)N2C(C)C3CC(Oc4ccc(C(F)(F)F)cn4)C2C3)c(-n2nccn2)c1` (racemic) [Example 11, (R/S)-(5-methyl-3-(2H-1,2,3-triazol-2-yl)pyridin-2-yl)(3-methyl-6-((5-(trifluoromethyl)pyridin-2-yl)oxy)-2-azabicyclo[2.2.1]heptan-2-yl)methanone], the pKi was 5.68.

Consider `CCOc1ccc(C)nc1C(=O)N1C(C)C2CC(Oc3ccc(C(F)(F)F)cn3)C1C2` (racemic) [Example 13, (R/S)-(3-ethoxy-6-methylpyridin-2-yl)(3-methyl-6-((5-(trifluoromethyl)pyridin-2-yl)oxy)-2-azabicyclo[2.2.1]heptan-2-yl)methanone], for which the pKi was 5.80.

For the compound `CC1C2CC(Oc3ccc(C(F)(F)F)cn3)C(C2)N1C(=O)c1cc(F)ccc1-c1ncccn1` (racemic) [Example 18, (R/S)-(5-fluoro-2-(pyrimidin-2-yl)phenyl)(−3-methyl-6-((5-(trifluoromethyl)pyridin-2-yl)oxy)-2-azabicyclo[2.2.1]heptan-2-yl)methanone], the pKi is 5.80.

Turning to `CC1C2CC(Oc3ccc(C(F)(F)F)cn3)C(C2)N1C(=O)c1cccc(F)c1-c1ncc(F)cn1` (racemic) [Example 20, (R/S)-(3-fluoro-2-(5-fluoropyrimidin-2-yl)phenyl)(3-methyl-6-((5-(trifluoromethyl)pyridin-2-yl)oxy)-2-azabicyclo[2.2.1]heptan-2-yl)methanone], the pKi was 5.51.

As for `Cc1cnc(C(=O)N2C(C)C3CC(Nc4ccc(C(F)(F)F)cn4)C2C3)c(-n2nccn2)c1` (racemic) [Example 61, (R/S)-(5-methyl-3-(2H-1,2,3-triazol-2-yl)pyridin-2-yl)(3-methyl-6-((5-(trifluoromethyl)pyridin-2-yl)amino)-2-azabicyclo[2.2.1]heptan-2-yl)methanone], the pKi was 6.23.

`CC1C2CC(Nc3cnc(C(F)(F)F)cn3)C(C2)N1C(=O)c1ccccc1-n1nccn1` (racemic) [Example 68, (R/S)-(2-(2H-1,2,3-triazol-2-yl)phenyl)(3-methyl-6-((5-(trifluoromethyl)pyrazin-2-yl)amino)-2-azabicyclo[2.2.1]heptan-2-yl)methanone]: the pKi is 6.20.

In the case of `Cc1ccc(-n2nccn2)c(C(=O)N2C(CF)C3CC(Oc4ccc(C(F)(F)F)cn4)C2C3)n1` (racemic) [Example 70], the pKi is 5.70.

Turning to `Cc1cnc(-n2nccn2)c(C(=O)N2C(CF)C3CC(Oc4ccc(C(F)(F)F)cn4)C2C3)c1` (racemic) [Example 72], the pKi is < 5.00.

`O=C(c1ccccc1-n1nccn1)N1C(CF)C2CC(Oc3ccc(C(F)(F)F)cn3)C1C2` (racemic) [Example 73, (R/S)-(2-(2H-1,2,3-triazol-2-yl)phenyl)(3-(fluoromethyl)-6-((5-(trifluoromethyl)pyridin-2-yl)oxy)-2-azabicyclo[2.2.1]heptan-2-yl)methanone]: the pKi was 5.70.

Turning to `Cc1ccc(-n2nccn2)c(C(=O)N2C(CC(C)C)C3CC(Oc4ccc(C(F)(F)F)cn4)C2C3)n1` (racemic) [Example 210, (R/S)-[2-isobutyl-5-[[5-(trifluoromethyl)-2-pyridyl]oxy]-3-azabicyclo[2.2.1]heptan-3-yl]-[6-methyl-3-(triazol-2-yl)-2-pyridyl]methanone], the pKi is 5.82.
